Results: patent US8314255B2, “Use of phthalimide and/or sulphonamide derivatives in the treatment of diseases which require reducing the TNF- α levels and an exogenous source of nitric oxide, phthalimide derivatives, sulphonamide derivatives, and a method for obtaining a sulphonamide derivative” (priority 2007, dated 2012)

Experiments:
[1] = test system: Salmonella typhimurium TA100; experiment: AMES test, mutagenic evaluation in Salmonella typhimurium TA100 strain with/without metabolic activation (S9); format: cell-based
Description: (§1) The procedure was firstly developed by (MARON, D. M. and AMES, B. N. Mut. Res. v. 113, pp. 173-215, 1983)
(§2) For this assay, Salmonella typhimurium TA100 and TA102 strains from the mutagenicity laboratory of the “Faculdade de Ciências Farmacêuticas—UNESP Araraquara” were used. Such strains have the following characteristics: (AMES, 1983)
(§3) The positive controls are mutagenic compounds specific for each strain and test condition, with 25 μL/plate of sodium azide (1.25 μg/plate) and 100 μL of mitomycin (0.5 μg/plate) being the controls for TA100 and TA102, respectively, in the absence of metabolic activation. For assays with metabolic activation, the positive control for TA100 is 50 μL 2-antramine (1.25 μg/plate) and for TA102 it is 50 μL 2-aminofluorene (1.25 μg/plate).
(§4) The preincubation method was used.
(§5) In laminar flow, Salmonella typhimurium (TA100 and TA 102) strains were inoculated individually with a platinum loop, in the respective nutrient broths and maintained at 37° C., under constant stirring (160 rpm) during 14 hours, in order to achieve a density of 1 to 2×10^9 bacteria/mL.
(§6) Different concentrations of the compounds were added into 100 μL of 0.2M phosphate buffer pH 7.4 (or 500 μL of the mixture S9 in metabolic activation assays) and incubated for 20-30 minutes at 37° C. Solutions containing the compounds had DMSO as the solvent. Thereafter, 2 mL of top agar supplemented with traces of histidine and biotin was added, homogenized and plated in glycosylated minimum medium. After solidification of the top agar, the plates were incubated for 48 hours at a 37° C. Then, the counting of the number of revertant colonies per plate was performed. All tested concentrations, positive and negative controls were run in triplicate.
(§7) After 48 hours, the revertant colonies were counted manually, and the protoCOL Colony Counter Version 3.15.630 (1998-2001) SYNBIOSIS LTD system was used for the positive control.
(§8) The final data obtained from the assay was analyzed using the statistical software Salanal (Salmonella Assay Analysis) version 1.0 from the Research Triangle Institute, RTP, North Carolina, USA. Such software allows the dose-response effect to be evaluated by means of analysis of variance (ANOVA-test F) computations between the measurement of the number of revertants at the different tested concentrations (doses) and the negative control, followed by a linear regression. The software model chosen for analyzing the data was Bernstein's (BERNSTEIN, L. et al. Mutat. Res. v. 97, p. 267-281, 1982). The slope of the straight line from the linear portion of the dose-response curve is also provided by this software and corresponds to the number of revertants induced per measurement unit of the analyzed sample.
(§9) From the results, the mutagenicity ratio (MR) was computed for each analyzed dose from each compound. MR is given by the following equation:
(§10) MR=average number of revertants per test plate (spontaneous+induced revertants) […] average number of revertants per plate of the negative control (spontaneous revertants)
(§11) The spontaneous growing means that the number of revertants which developed on the plate, regardless of being induced or not, wherein values higher or equal to 2 are considered as a positive response (VALENT, G. V. et al. Env. Toxicol. Water Quality. v. 8, p. 371-381, 1993).
(§12) The mutagenicity test with metabolic activation system was performed with a microsomal fraction S9 (S9 mix) prepared from a liver homogenizate from Sprague Dawley rats, previously treated with Aroclor 1254, acquired in the freeze-dried form.
(§13) The procedure for this assay is the same, however, instead of the buffer, 500 μL of the S9 mixture should be added.
(§14) The S9 mixture has a viability of 4 hours from preparation when put on ice. The plates are then incubated for 48 hours at 37° C. After the required time has elapsed, the counting of the revertant colonies was carried out. All tested concentrations, positive and negative controls were run in triplicate.

[2] = test system: Salmonella typhimurium TA102; experiment: AMES test, mutagenic evaluation in Salmonella typhimurium TA102 strain with/without metabolic activation (S9); format: cell-based
Description: as §1, §2, §3, §4, §5, §6, §7, §8, §9, §10, §11, §12, §13, §14

[3] = test system: leukocyte infiltration, peritonitis induced by thioglycolate; experiment: Peritonitis assay induced by 3% thioglycolate; format: in vivo; details: 300 μMol/Kg orally, mouse, 3% thioglycolate i.p., 4 h
Description: In a second assay, the number of total leukocytes (10^6/mL) was evaluated in order to evaluate the ability to inhibit their infiltration in the inflammatory process.
The mice were treated with the substances being analyzed or carrier and after 1 h of oral administration, they were simultaneously subjected to the peritonitis assay, by administering intraperitoneally 1 ml of a 3% thioglycolate solution. 4 h after the administration of thioglycolate, the peritoneal cavity was washed with 3 ml of a HANKS solution (Balanced salt solution, free of Ca^2+ and Mg^2+). Next, the peritoneal wash was analyzed and the total counting of white blood cells was made in a Newbauer's chamber under an optical microscope with a 40× objective.

gamma-globin mRNA = details: 48 hours, data in the literature; cited from earlier work

For `O=C1c2ccccc2C(=O)N1c1cccc(CO[N+](=O)[O-])c1` [Compound IC, 3-(1,3-dioxo-1,3-dihydro-2H-isoindol-2-yl)benzyl nitrate], the “mutagenicity ratio (MR)” value ([1]; TA 100, +S9, 0.224 μmol/plate) was 1.27, the “number of revertants per plate” value ([1]; TA 100, +S9, 0.224 μmol/plate) was 165 ± 13.2 revertants/plate and the “mutagenicity ratio (MR)” value ([1]; TA 100, +S9, 0.488 μmol/plate) was 1.18. For the same compound, the “number of revertants per plate” value ([1]; TA 100, +S9, 0.488 μmol/plate) was 153 ± 13.1 revertants/plate, the “mutagenicity ratio (MR)” value ([1]; TA 100, +S9, 0.896 μmol/plate) was 1.12 and the “number of revertants per plate” value ([1]; TA 100, +S9, 0.896 μmol/plate) was 146 ± 5 revertants/plate. For the same compound, the “mutagenicity ratio (MR)” value ([1]; TA 100, +S9, 1.8 μmol/plate) was 1.26, the “number of revertants per plate” value ([1]; TA 100, +S9, 1.8 μmol/plate) was 163 ± 22.5 revertants/plate and the “mutagenicity ratio (MR)” value ([1]; TA 100, +S9, 3.58 μmol/plate) was 1.22. The “number of revertants per plate” value ([1]; TA 100, +S9, 3.58 μmol/plate) was 158.3 ± 9.3 revertants/plate, the “mutagenicity ratio (MR)” value ([1]; TA 100, −S9, 0.224 μmol/plate) was 1.21 and the “number of revertants per plate” value ([1]; TA 100, −S9, 0.224 μmol/plate) was 216.7 ± 10.2 revertants/plate. The “mutagenicity ratio (MR)” value ([1]; TA 100, −S9, 0.488 μmol/plate) was 1.25, the “number of revertants per plate” value ([1]; TA 100, −S9, 0.488 μmol/plate) was 224.5 ± 24.6 revertants/plate and the “mutagenicity ratio (MR)” value ([1]; TA 100, −S9, 0.896 μmol/plate) was 1.48. For the same compound, the “number of revertants per plate” value ([1]; TA 100, −S9, 0.896 μmol/plate) was 266.3 ± 8.4 revertants/plate, the “mutagenicity ratio (MR)” value ([1]; TA 100, −S9, 1.8 μmol/plate) was 1.34 and the “number of revertants per plate” value ([1]; TA 100, −S9, 1.8 μmol/plate) was 239.7 ± 11.3 revertants/plate. The “mutagenicity ratio (MR)” value ([1]; TA 100, −S9, 3.58 μmol/plate) was 1.8, the “number of revertants per plate” value ([1]; TA 100, −S9, 3.58 μmol/plate) was 323.7 ± 10.2 revertants/plate and the “mutagenicity (AMES test, overall)” value ([1]; TA100 and TA102, with and without S9, at the concentrations used) was “did not show mutagenicity”. The “mutagenicity ratio (MR)” value ([2]; TA 102, +S9, 0.224 μmol/plate) was 0.73, the “number of revertants per plate” value ([2]; TA 102, +S9, 0.224 μmol/plate) was 272 ± 26 revertants/plate and the “mutagenicity ratio (MR)” value ([2]; TA 102, +S9, 0.488 μmol/plate) was 1.01. For the same compound, the “number of revertants per plate” value ([2]; TA 102, +S9, 0.488 μmol/plate) was 378 ± 6.1 revertants/plate, the “mutagenicity ratio (MR)” value ([2]; TA 102, +S9, 0.896 μmol/plate) was 1.09 and the “number of revertants per plate” value ([2]; TA 102, +S9, 0.896 μmol/plate) was 405 ± 11 revertants/plate. For the same compound, the “mutagenicity ratio (MR)” value ([2]; TA 102, +S9, 1.8 μmol/plate) was 1.07, the “number of revertants per plate” value ([2]; TA 102, +S9, 1.8 μmol/plate) was 399.3 ± 40 revertants/plate and the “mutagenicity ratio (MR)” value ([2]; TA 102, +S9, 3.58 μmol/plate) was 1.15. The “number of revertants per plate” value ([2]; TA 102, +S9, 3.58 μmol/plate) was 431 ± 17.9 revertants/plate, the “mutagenicity ratio (MR)” value ([2]; TA 102, −S9, 0.224 μmol/plate) was 1.10 and the “number of revertants per plate” value ([2]; TA 102, −S9, 0.224 μmol/plate) was 281 ± 25 revertants/plate. The “mutagenicity ratio (MR)” value ([2]; TA 102, −S9, 0.488 μmol/plate) was 1.12, the “number of revertants per plate” value ([2]; TA 102, −S9, 0.488 μmol/plate) was 286 ± 4.2 revertants/plate and the “mutagenicity ratio (MR)” value ([2]; TA 102, −S9, 0.896 μmol/plate) was 1.19. For the same compound, the “number of revertants per plate” value ([2]; TA 102, −S9, 0.896 μmol/plate) was 303 ± 9.2 revertants/plate, the “mutagenicity ratio (MR)” value ([2]; TA 102, −S9, 1.8 μmol/plate) was 1.55 and the “number of revertants per plate” value ([2]; TA 102, −S9, 1.8 μmol/plate) was 395.7 ± 9 revertants/plate. The “mutagenicity ratio (MR)” value ([2]; TA 102, −S9, 3.58 μmol/plate) was 1.52, the “number of revertants per plate” value ([2]; TA 102, −S9, 3.58 μmol/plate) was 387 ± 9.7 revertants/plate and the “Cell Number avg (×106), total leukocytes” value [3] was 3.2 ×106. For the same compound, the “Inhibition % (leukocyte infiltrate)” value [3] was 42.85%.
In the case of `NC(=O)NO` [HU, Hydroxyurea], the “concentration producing comparable activity on gamma-globin expression” value (gamma-globin mRNA) is listed as 10 µM.
